Results published in patent US20190231847A1, “TREATMENT OF OCULAR DISEASE” (priority 2016, published 2019).

How the values were obtained:
[1] = system: neovascularisation induced by sutures in the cornea; experiment: Rat corneal suture model, Example 1 (blinded grading at day 6, images); assay type: in vivo; details: subconjunctival injection; 100 nM ALM201; Triamcinolone positive control
Protocol: To assess the action of ALM201 (SEQ ID NO:3) on the ocular surface, the ability to halt vessel growth was measured. Vessel growth was stimulated through a well-accepted model (Shi et al., 2011) whereby a suture was placed in the central cornea of rat eyes (FIG. 1). We have shown the rat eye is similar anatomically to the human eye (Moore J E, McMullen C B, Mahon G and Adamis A P. The corneal epithelial stem cell. DNA Cell Biol. 2002; 21(5-6):443-51; incorporated herein by reference).
The experimental groups were: • Subconjunctival injection of peptide (5 rats), control group (5 rats) and positive control group (5 rats) • Intrastromal injection of peptide (5 rats), control group (5 rats) and positive control group (5 rats) • Topical application of peptide (5 rats), control group (5 rats) and positive control group (5 rats)
A suture was placed in the central cornea of one eye of each animal while the control eye remained untouched. For the injection groups, peptide was added to the rat's eyes at day 0, day 3, and day 6. For the topical application group, peptide and the positive control was added daily. Each day after suture, rats were monitored for vessel growth and photographed using a Hawk Eye Portable Digital Slit Lamp (Dioptrix, France) and inverted microscope (Nikon's E600FN; Surrey, UK). At a time point when a difference is noted (e.g. day 6) between untreated and peptide treated animals, they received 8 μg/g tail vein injections of an endothelial-specific fluorescein-conjugated lectin (Lycopersicon esculentum; Vector Laboratories, Burlingame, Calif.). Thirty minutes later, the eyes were harvested and fixed with 10% neutral buffered formalin for 24 hours. The corneas were isolated and flat-mounted on glass slides. The fluorescence in the perfused vessels was captured using a Leica SP5 multiphoton microscope (Milton Keynes, UK). Vessel formation within tagged information file format (.tiff) files was measured by visualization with Image J (Rasband, 1997-2014).
At day 6 all rats were graded by an opthalmologist blinded to the treatment. Grading scales were as follows:
Vessel distance from suture: 0=no reach; 1=small distance; 2=moderate distance; 3=¾ of the way; 4=reached sutures;
Vessel density grading: 0=no density; 1=mild; 2=moderate; 3=high Inflammation grading: 0=none; 1=minimal; 2=moderate; 3=severe;

[2] = Bodyweight of EAU mice during the course of treatment; details: Dexamethasone 0.5 mg/kg p.o.; ALM201 0.3 mg/kg i.p.+Dexamethasone 0.5 mg/kg p.o.
Excerpt: Bodyweight (BW) of each mouse was monitored daily during the course of treatment.

retinal inflammation = experiment: Mouse experimental autoimmune uveitis (EAU) model, clinical score from fundus images (TEFI)
Protocol: The effect of ALM201 on autoimmune uveitis was tested in a mouse model of experimental autoimmune uveitis (EAU).
All mice were maintained in a normal experimental room and exposed to a 12-hour-dark-12-hour light cycle.
An additional 1 mg Bordetella pertussis toxin (Tocris Bioscience, Bristol, UK) was administered intraperitoneally immediately after peptide injection.
Mouse pupils were dilated with 1% atropine sulphate and 2.5% phenylephrine hydrochloride (Chauvin, Essex, UK). The animals were anaesthetised by isofluorane. […] Clinical score of retinal inflammation was accessed using the criteria described previously by us (Xu et al. 2008a).
Ten mice were assigned into each group.
All animals were treated for 10 days from day 14 to 24 p.i.
Group 2: ALM201 0.3 mg/kg in 100 ml, i.p. injection, once daily.
Group 3: ALM201 3 mg/kg in 100 ml, i.p. injection, once daily.
Group 4: Dexamethasone 0.5 mg/kg in 100 ml, p.o. (gavage), once daily.
Group 5: ALM201 0.3 mg/kg in 100 ml, i.p. injection+Dexamethasone 0.5 mg/kg in 100 ml, p.o. (gavage) once daily.
Data (Clinical score and histological score) was expressed as mean±SD. One way ANOVA followed by the Tukey's Multiple Comparison Test was used to detect difference between all treatment groups. In addition, Mann-Whitney U test (two tails) was used to detect the difference between ALM201 or dexamethasone treated group and PBS control group. Paired Student's t test was used to compare clinical score before and after treatment.

[3] = Dexamethasone 0.5 mg/kg p.o. once daily day 14-24 p.i., 10 mice

| SMILES | Vasculature in images (neovascularisation induced by sutures) [1] | Bodyweight during the 10-day treatment period [2] | No. of mice with decreased score (retinal inflammation; [3]) | No. of mice with increased score (retinal inflammation; [3]) | No. of mice with increased score (%) (retinal inflammation; [3]) | No. of mice with no change (retinal inflammation; [3]) | Average increment in EAU score (retinal inflammation; Dexamethasone 0.5 mg/kg, the 3 mice with increased score) | Average reduction in EAU score (retinal inflammation; Dexamethasone 0.5 mg/kg, the 3 mice with reduced score) |
| --- | --- | --- | --- | --- | --- | --- | --- | --- |
| C[C@]12C=CC(=O)C=C1CC[C@H]1[C@@H]3C[C@@H](O)[C@](O)(C(=O)CO)[C@@]3(C)C[C@H](O)[C@@]12F [Triamcinolone, reference compound] | normal vasculature |  |  |  |  |  |  |  |
| C[C@@H]1C[C@H]2[C@@H]3CCC4=CC(=O)C=C[C@]4(C)[C@@]3(F)[C@@H](O)C[C@]2(C)[C@@]1(O)C(=O)CO [Dexamethasone, reference compound] |  | stable BW | 3 | 3 | (30%) | 4 | 0.80 | 0.69 |
